Target: human P2Y12 receptor (Homo sapiens, UniProt Q9H244)
Assay: Human P2Y12 recombinant cell membrane binding assay with 33P 2MeS-ADP
Settings: competition against 33P 2MeS-ADP, membranes of CHO cells with recombinant human P2Y12 receptor
Description: The ability of the compounds of the formula Ito inhibit the P2Y12 receptor can be assessed by determining the concentration of the compound of the formula I that binds to the human P2Y12 Recombinant Cell Membrane Binding Assay with 33P 2MeS-ADP.
Human P2Y12 Recombinant Cell Membrane Binding Assay
The ability of a test compound to bind to the P2Y12 receptor was evaluated in a recombinant cell membrane binding assay. In this competitive binding assay, the test compound competed against a radiolabeled agonist for binding to the P2Y12 receptor, expressed on the cell membrane. Inhibition of binding of the labeled material was measured and correlated to the amount and potency of the test compound. This binding assay is a modification of the procedure described by Takasaki, J. et. al, Mol. Pharmacol., 2001, Vol. 60, pg. 432. A membrane preparation was prepared from Chinese Hamster Ovary (CHO) cells with recombinant expression of the human P2Y12 receptor according to standard procedures as a source of P2Y12.
To a 96-well microtiterplate the following were added: a) 24 μl of assay buffer (10 mM HEPES, 138 mM NaCl, […] KCl, 12 mM NaHCO3, 1 mM EDTA-Na, 0.1% BSA, pH 7.4) b) 1 μL compound in DMSO c) 50 μL P2Y12 CHO membrane (20 μg/ml) and after 15 min at RT d) 25 μL of 1.61 nM 33P 2MeS-ADP (Perkin Elmer NEN custom synthesis, specific activity ˜2100 Ci/mmol) made in assay buffer.
After 20 min incubation at RT samples were transferred to 96-well microtiter filterplates (Millipore HTS GF/B), pre-wetted for 20 min with 300 μL of stop buffer (10 mM HEPES, 138 mM NaCl pH 7.4) and then filtered through completely with a Millipore plate vacuum. Next, wells were washed four times with 400 μl/well of stop buffer on a plate vacuum. The plate was disassembled and allowed to air dry overnight with the filter side up over night. The filter plates were snapped into adapter plates and 0.1 mL of Microscint 20 Scintillation Fluid (Perkin Elmer #6013621) was added to each well. The top of the filterplate was sealed with plastic plate covers. The sealed filterplate were incubated 2 hours at RT. A Microbeta Scintillation Counter was used to measure counts.
Compounds were diluted as 10 mM DMSO stocks and tested in a four-point, five-fold dilution series run in triplicate beginning at 10 μM, final concentration. Data were analyzed using a four-parameter curve fit with a fixed minimum and maximum experimentally defined as the average positive and negative controls on each plate.

Chain of human P2Y12 receptor (Q9H244 whole entry): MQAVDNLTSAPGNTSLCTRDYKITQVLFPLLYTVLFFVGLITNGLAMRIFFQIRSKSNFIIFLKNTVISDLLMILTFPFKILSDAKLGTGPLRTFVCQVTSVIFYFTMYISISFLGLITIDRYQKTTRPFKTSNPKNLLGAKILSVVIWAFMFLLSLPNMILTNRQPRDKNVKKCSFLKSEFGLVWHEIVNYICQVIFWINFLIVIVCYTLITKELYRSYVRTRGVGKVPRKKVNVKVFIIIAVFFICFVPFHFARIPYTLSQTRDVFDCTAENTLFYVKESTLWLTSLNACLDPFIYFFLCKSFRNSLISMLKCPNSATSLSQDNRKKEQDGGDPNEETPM

Row | Structure (SMILES) | IC50 [nM]
1 | CCOC(=O)N1CCN(C(=O)[C@H](CC(=O)O)NC(=O)c2cc(OCC(=O)N3CCC[C@H]3C(=O)NCC(F)F)n(-c3ccccc3)n2)CC1 [Example 57, 4-{(S)-3-Carboxy-2-[(5-{2-[(S)-2-(2,2-difluoro-ethylcarbamoyl)-pyrrolidin-1-yl]-2-oxo-ethoxy}-1-phenyl-1H-pyrazole-3-carbonyl)-amino]-propionyl}-piperazine-1-carboxylic acid ethyl ester] | 183
2 | CCOC(=O)N1CCN(C(=O)[C@H](CCC(=O)O)NC(=O)c2cc(OCC(=O)N3CCC[C@H]3C(=O)NCC(F)(F)F)n(-c3ccc(F)c(F)c3)n2)CC1 [Example 85, 4-((S)-4-Carboxy-2-{[5-[2-((S)-2-(2,2,2-trifluoroethylcarbamoyl)-pyrrolidin-1-yl)-2-oxo-ethoxy]-1-(3,4-difluoro-phenyl)-1H-pyrazole-3-carbonyl]-amino}-butyryl)-piperazine-1-carboxylic acid ethyl ester] | 154
3 | CCOC(=O)N1CCN(C(=O)[C@H](CNS(C)(=O)=O)NC(=O)c2cc(OCC(=O)N3CCC[C@H]3C(=O)NC3CCC3)n(-c3ccccc3)n2)CC1 [Example 88, 4-[(S)-2-({5-[2-((S)-2-Cyclobutylcarbamoyl-pyrrolidin-1-yl)-2-oxo-ethoxy]-1-phenyl-1H-pyrazole-3-carbonyl}-amino)-3-methanesulfonylamino-propionyl]-piperazine-1-carboxylic acid ethyl ester] | 125
4 | CCOC(=O)C(=O)NC[C@H](NC(=O)c1cc(OCC(=O)N2CCC[C@H]2C(=O)NC2CCC2)n(-c2ccccc2)n1)C(=O)N1CCN(C(=O)OCC)CC1 [Example 90, 4-[(S)-2-({5-[2-((S)-2-Cyclobutylcarbamoyl-pyrrolidin-1-yl)-2-oxo-ethoxy]-1-phenyl-1H-pyrazole-3-carbonyl}-amino)-3-(ethoxyoxalyl-amino)-propionyl]-piperazine-1-carboxylic acid ethyl ester] | 35
5 | CCOC(=O)N1CCN(C(=O)[C@H](CNC(=O)C2CC2)NC(=O)c2cc(OCC(=O)N3CCC[C@H]3C(=O)NC3CCC3)n(-c3ccccc3)n2)CC1 [Example 91, 4-[(S)-2-({5-[2-((S)-2-Cyclobutylcarbamoyl-pyrrolidin-1-yl)-2-oxo-ethoxy]-1-phenyl-1H-pyrazole-3-carbonyl}-amino)-3-(cyclopropanecarbonyl-amino)-propionyl]-piperazine-1-carboxylic acid ethyl ester] | 130
6 | CCOC(=O)N1CCN(C(=O)[C@H](CCNC(=O)C(C)(C)C)NC(=O)c2cc(OCC(=O)N3CCC[C@H]3C(=O)NC3CCC3)n(-c3ccccc3)n2)CC1 [Example 99, 4-[(S)-2-({5-[2-((S)-2-Cyclobutylcarbamoyl-pyrrolidin-1-yl)-2-oxo-ethoxy]-1-phenyl-1H-pyrazole-3-carbonyl}-amino)-4-(2,2-dimethyl-propionylamino)-butyryl]-piperazine-1-carboxylic acid ethyl ester] | 158
7 | CCOC(=O)N1CCN(C(=O)[C@H](CCNC(=O)C(C)C)NC(=O)c2cc(OCC(=O)N3CCC[C@H]3C(=O)NC3CCC3)n(-c3ccccc3)n2)CC1 [Example 100, 4-[(S)-2-({5-[2-((S)-2-Cyclobutylcarbamoyl-pyrrolidin-1-yl)-2-oxo-ethoxy]-1-phenyl-1H-pyrazole-3-carbonyl}-amino)-4-isobutyrylamino-butyryl]-piperazine-1-carboxylic acid ethyl ester] | 197
8 | CCCCOC(=O)NC1CCN(C(=O)[C@H](CCC(=O)O)NC(=O)c2cc(OCC(=O)N3CCC[C@H]3C(=O)NC3CCC3)n(-c3ccccc3)n2)CC1 [Example 102, (S)-5-(4-Butoxycarbonylamino-piperidin-1-yl)-4-({5-[2-((S)-2-cyclobutylcarbamoyl-pyrrolidin-1-yl)-2-oxo-ethoxy]-1-phenyl-1H-pyrazole-3-carbonyl}-amino)-5-oxo-pentanoic acid] | 58

The remaining compounds from weak to strong by IC50, led by results:

Row | IC50 [nM] | Structure (SMILES)
9 | 190 | CCOC(=O)N1CCN(C(=O)[C@H](CC(=O)O)NC(=O)c2cc(OCC(=O)N3CCC[C@H]3C(=O)NCCF)n(-c3cccc(F)c3)n2)CC1 [Example 78, 4-((S)-3-Carboxy-2-{[5-[2-((S)-2-(2-fluoroethylcarbamoyl)-pyrrolidin-1-yl)-2-oxo-ethoxy]-1-(3-fluoro-phenyl)-1H-pyrazole-3-carbonyl]-amino}-propionyl)-piperazine-1-carboxylic acid ethyl ester]
10 | 183 | CCOC(=O)N1CCN(C(=O)[C@H](CCC(=O)O)NC(=O)c2cc(OCC(=O)N3CCC[C@H]3C(=O)NCCSC)n(-c3ccccc3)n2)CC1 [Example 3, 4-{(S)-4-Carboxy-2-[(5-{2-[(S)-2-(2-methylsulfanyl-ethylcarbamoyl)-pyrrolidin-1-yl]-2-oxo-ethoxy}-1-phenyl-1H-pyrazole-3-carbonyl)-amino]-butyryl}-piperazine-1-carboxylic acid ethyl ester]
11 | 145 | CCOC(=O)N1CCN(C(=O)[C@H](CC(=O)O)NC(=O)c2cc(OCC(=O)N3CCC[C@H]3C(=O)NCC(F)F)n(-c3cccc(F)c3)n2)CC1 [Example 79, 4-((S)-3-Carboxy-2-{[5-[2-((S)-2-(2,2-difluoroethylcarbamoyl)-pyrrolidin-1-yl)-2-oxo-ethoxy]-1-(3-fluoro-phenyl)-1H-pyrazole-3-carbonyl]-amino}-propionyl)-piperazine-1-carboxylic acid ethyl ester]
12 | 111 | CCOC(=O)N1CCN(C(=O)[C@H](CNC(=O)OC)NC(=O)c2cc(OCC(=O)N3CCC[C@H]3C(=O)NC3CCC3)n(-c3ccccc3)n2)CC1 [Example 89, 4-[(S)-2-({5-[2-((S)-2-Cyclobutylcarbamoyl-pyrrolidin-1-yl)-2-oxo-ethoxy]-1-phenyl-1H-pyrazole-3-carbonyl}-amino)-3-methoxycarbonylamino-propionyl]-piperazine-1-carboxylic acid ethyl ester]
13 | 83 | CCOC(=O)N1CCN(C(=O)[C@H](CCC(=O)OC2CCCCC2)NC(=O)c2cc(OCC(=O)N3CCC[C@H]3C(=O)NC3CCC3)n(-c3ccccc3)n2)CC1 [Example 129, 4-[(S)-2-({5-[2-((S)-2-Cyclobutylcarbamoyl-pyrrolidin-1-yl)-2-oxo-ethoxy]-1-phenyl-1H-pyrazole-3-carbonyl}-amino)-4-cyclohexyloxycarbonyl-butyryl]-piperazine-1-carboxylic acid ethyl ester]
14 | 59 | CCOC(=O)N1CCN(C(=O)[C@H](CCNS(C)(=O)=O)NC(=O)c2cc(OCC(=O)N3CCC[C@H]3C(=O)NC3CCC3)n(-c3ccccc3)n2)CC1 [Example 94, 4-[(S)-2-({5-[2-((S)-2-Cyclobutylcarbamoyl-pyrrolidin-1-yl)-2-oxo-ethoxy]-1-phenyl-1H-pyrazole-3-carbonyl}-amino)-4-methanesulfonylamino-butyryl]-piperazine-1-carboxylic acid ethyl ester]
15 | 59 | CCOC(=O)N1CCN(C(=O)[C@H](CCC(=O)OC2CCCC2)NC(=O)c2cc(OCC(=O)N3CCC[C@H]3C(=O)NC3CCC3)n(-c3ccccc3)n2)CC1 [Example 130, 4-[(S)-2-({5-[2-((S)-2-Cyclobutylcarbamoyl-pyrrolidin-1-yl)-2-oxo-ethoxy]-1-phenyl-1H-pyrazole-3-carbonyl}-amino)-4-cyclopentyloxycarbonyl-butyryl]-piperazine-1-carboxylic acid ethyl ester]

Source: patent US8426420B2, “Heterocyclic pyrazole-carboxamidesas P2Y12 antagonists” (Sanofi, priority 2007, dated 2013)
